Values quoted from earlier work as cited in patent US20240173373A1, “NOVEL METHOD FOR THE PRODUCTION OF CONCENTRATED ALOE VERA COMPOSITIONS AND THERAPEUTIC USES FOR THE SAME” (Desert Harvest, Inc., priority 2021, published 2024).

Tested on: scald hyperalgesia
Settings: compared with phenylbutazone

O-acetylated-D-mannan [O-acetylated-D-mannan (T-2-HN)]
inhibitory effect on scald hyperalgesia: more marked inhibitory effect on scald hyperalgesia than phenylbutazone
